The values that follow come from patent US11091429B2, “Organic compounds” (Givaudan SA, priority 2012, dated 2021).

Entries after “also recorded” stand apart in the source; their conditions may differ.

Assay [1] can be described thus: Tasting in vanilla milk 0.15% fat. Conditions: 4% sucrose, Vaniline 10 ppm + vanilla extract 0.03%. Here is the method: (§1) Samples were prepared and evaluated by expert tasters. Tasters were asked to describe the samples focusing on authentic taste, mouthfeel, fullness, salty-ness, salivation, umami, sweetness, juiciness, richness, long lastingness and fattiness.
Base: Milk 0.15% fat, sweetened with 4% sucrose by weight, flavoured with proprietary
Vaniline flavour @ 10 ppm+Vanilla ext. @ 0.03%
(§2) Samples were evaluated by expert tasters. Tasters were asked to describe the samples focusing on authentic taste, mouthfeel, fullness, salty-ness, salivation, umami, sweetness, juiciness, richness, long lastingness and fattiness.
Comparison in a Vanilla Milk Drink
Vaniline @ 10 ppm+Vanilla extract @ 0.03%
Base: Milk 0.15% fat, sweetened with 4% sucrose by weight, flavoured with proprietary Vaniline @ 10 ppm+Vanilla extract @ 0.03%

Assay [2] can be described thus: Test in chocolate flavoured drink. The conditions noted are these: water, 4% sucrose, chocolate flavour 0.03%. The method, then: as §1
Test in Chocolate Flavoured Drink:
Base: Water, 4% sucrose, proprietary chocolate flavor at 0.03%
as §2
Test in Chocolate Flavoured Drink Flavoured
Base: Water, 4% sucrose, proprietary chocolate flavour @ 0.03%

Assay [3] can be described thus: Tasting in mango juice drink, 1% clear mango juice. Conditions: 8% sucrose, 0.1% citric acid, mango flavour 0.05%. The method, then:
Comparison in a Mango Juice Drink
Base is 8% sucrose, 0.1% citric acid, 1% clear mango juice, and a proprietary mango flavour at 0.05%.
as §2
Base is water, 8% sucrose, 0.1% citric acid, 1% clear mango juice, proprietary mango flavour @ 0.05%
(§3) Samples were evaluated by expert tasters. Tasters were asked to describe the samples focusing on authentic taste, mouthfeel, fullness, salivation, salty-ness, umami, sweetness, juiciness, richness, long lastingness and fattiness.
Base is water, 8% sucrose, 0.1% citric acid, 1% clear mango juice, proprietary mango flavour @0.05%
(§4) Samples were evaluated by expert tasters. Tasters were asked to describe the samples focusing on authentic taste, mouthfeel, fullness, salty-ness, salivation, umami, sweetness, juiciness, richness, long lastingness and fattiness
Base is 8% sucrose, 0.1% citric acid, 1% clear mango juice, proprietary mango flavour @ 0.05%
(§5) Samples were evaluated by expert tasters. Tasters were asked to describe the samples focusing on authentic taste, mouth feel, fullness, salivation, salty-ness, umami, sweetness, juiciness, richness, long lastingness and fattiness
Base is water, 8% sucrose, 0.1% citric acid, 1% clear mango juice, proprietary mango flavour @ 0.05%.
Test in a Mango Juice Drink

Assay [4] is described as follows: Test in peach flavoured drink. The conditions noted are these: 1 ppm; water, 8% sugar, 0.1% citric acid, peach flavour 0.05%. Here is the method: as §1
Test in Peach Flavoured Drink:
Base is water, 8% sugar, 0.1% citric acid, and proprietary peach flavour at 0.05%
as §2
Comparison in a Peach Drink
Base is water, 8% sugar, 0.1% citric acid, proprietary peach flavour at 0.05%
as §3

A short description of assay [5]: Test in pear flavoured drink. Conditions: water, 0.1% citric acid, pear flavour 0.025%. Here is the method:
as §1
Test in Pear Flavoured Drink:
Base: water, 7% sugar, 0.1% citric acid, proprietary pear flavour at 0.025%
as §2
Comparison in a Pear Drink
Base is water, 8% sugar, 0.1% citric acid, proprietary pear flavour at 0.025%

A short description of assay [6]: Tasting in strawberry flavoured sugar sweetened yoghurt. Conditions: 1.5% fat yoghurt, 8% sucrose, strawberry flavour 0.015%. Here is the method:
Strawberry Flavoured Sugar Sweetened Yoghurt
In a 1.5% fat yoghurt base, sweetened with 8% sucrose by weight, flavoured with a proprietary strawberry flavour @ 0.015% several different N-acyl aminoacids were added.
as §1
Test in a Strawberry Yoghurt
Base: Yoghurt 1.5% fat yoghurt, 8% sucrose, proprietary strawberry flavour @ 0.015%
as §3

A short description of assay [7]: Tasting in strawberry drink. The conditions noted are these: 0.5 ppm; 7% sucrose, 0.1% citric acid, strawberry flavour 0.015%. Here is the method:
as §1
Comparison in a Strawberry Drink
Base is 7% sucrose, 0.1% citric acid, and a proprietary strawberry flavour @ 0.015%
as §2
Base is water, 7% sucrose, 0.1% citric acid, proprietary strawberry flavour @ 0.015%
as §3
Test in a Strawberry Drink
Base is 7% sucrose, 0.1% citric acid, proprietary strawberry flavour @ 0.015%

Assay [8] is described as follows: Tasting in Activa strawberry yoghurt. The conditions noted are these: 2 ppm, 13.5% sugar, 3.2% fat. An excerpt:
Activa Strawberry Yoghurt
In a Full fat, Activa strawberry flavoured yoghurt containing 13.5% sugar, 3.2% fat C18:2-gaba and C18:0-leu at 2 ppm

Assay [9] can be described thus: Tasting in vanilla flavoured milk 3.0% fat. Conditions: 4% sugar, vanillin 10 ppm, vanilla extract 0.03%. Here is the method:
Vanilla Flavoured Milk 3.0% Fat
In a 3% fat milk drink, sweetened with 4% sucrose by weight, flavoured with Vaniline @ 10 ppm and a Vanilla extract @ 0.03% C18:2-gaba, C18:1-ACOA and C18:1-glu were added at 0.5 or 2 ppm.
Samples were evaluated by expert tasters. Tasters were asked to describe the samples focusing on authentic taste, mouthfeel, fullness, salivation, sweetness, juiciness, richness, long lastingness and fattiness.
Base: Milk 3% fat, 4% sugar, vanillin 10 ppm, vanilla extract 0.03%

Assay [10] can be described thus: Tasting in beef bouillon base. Conditions: 0.5% fat. Here is the method:
(§6) The following formulations were prepared and tasted by trained panelists.
Beef Bouillon base 1.0% salt, 0.5% fat

A short description of assay [11]: Tasting on fried potato snack product. Conditions: 35% fat, cheese seasoning. Here is the method:
as §6
A snack product consisting of a fried potato base, containing 35% fat and flavored with cheese seasoning containing salt, MSG, dairy, organic acids, sugars, and a flavour formulation. The following compounds were added to the snack product at the indicated levels and the tasting results are reported: […]

Assay [12] can be described thus: Tasting in Maggi beef bouillon. The conditions noted are these: Maggi beef bouillon 1 tablet in 500 ml of hot water. The method, then: as §1
Comparison in Beef Bouillon
Base is Maggi beef bouillon 1 tablet in 500 ml of hot water
as §2, §3, §4, §5

Another assay can be described thus: Test in lemon beverage. Conditions: 1 ppm; water, 7% sucrose, 0.15% citric acid, lemon flavor. The method, then: as §2
Basis water, 7% sucrose, 0.15% citric acid, proprietary lemon flavor
as §4

A short description of the next assay: Test in orange beverage. Conditions: 1 ppm; water, 7% sugar (8% sucrose elsewhere in the source), 0.1% citric acid, orange flavour 0.06%. Here is the method:
as §2
Base is water, 7% sugar, 0.1% citric acid, proprietary orange flavour @ 0.06%.
as §4
Base is water, 7% sugar, 0.1% citric acid, proprietary orange flavour @ 0.06%
as §5
Samples were evaluated by expert tasters. Tasters were asked to describe the samples focusing on authentic taste, mouthfeel, fullness, salivation, sweetness, juiciness, richness, long lastingness and fattiness
Comparison in an Orange Drink
Base: water, 8% sucrose, 0.1% citric acid, proprietary orange flavour @ 0.06%.

The nature of a further assay: Tasting in soy sauce. Conditions: 0.5 ppm in Kikkoman soy sauce low salt. Here is the method:
as §6
Salt level pure product between 5-40%
Salt level in application 0.3-1.0%
as §1
Test on Kikkoman Soy Sauce Low Salt
Base is Kikkoman soy sauce
Samples were prepared and evaluated by expert tasters. Tasters were asked to describe the samples focusing on authentic taste, mouthfeel, fullness, salivation, salty-ness, umami, sweetness, juiciness, richness, long lastingness and fattiness.

[13] abbreviates: 1 ppm, 7% sugar (8% elsewhere in the source).

As to `CCCCCCCCCCCCCCCC(=O)NC(CCC(=O)O)C(=O)O` (stereo not shown) [C16:0-glu, N-palmitoyl-Glu], the tasting result is listed as “ice cream like, sweet, very full” in assay [1] (1 ppm); “sweet, fatty cocoa, sulphur is enhanced, enhanced nib note” in assay [2] (0.5 ppm); “slightly more juicy impact” in [3] (1 ppm); “fruity, nice juicy, sweet, soft peach skin” in assay [4]; “fatty long lasting” in assay [5] (0.5 ppm, 7% sugar).
For the molecule `CCCCCCCCCCCCCCCCCC(=O)NC(CC(C)C)C(=O)O` (stereo not shown) [C18:0-leu], the tasting result was “fruity authentic strawberry, stronger strawberry, ripe, long lasting, juicy, creamy yoghurt” in assay [6] (2 ppm); “Very juicy full, 3D, stronger nicer strawberry, long lasting nice creamy aftertaste” in [6] (2 ppm, listed as C18:0 leu); “Very juicy full, 3D, stronger nicer strawberry, salivating long lasting” in [6] (5 ppm); “fruity strawberry like, ripe, long lasting” in assay [3] (2 ppm); “fruity authentic strawberry, stronger strawberry, ripe, long lasting, juicy” in assay [7]; “very juicy strawberry full, 3D, stronger strawberry, long lasting and creamy” in assay [8].
Consider `CCCCC/C=C\C/C=C\CCCCCCCC(=O)NC(CC(=O)O)C(=O)O` (stereo not shown) [C18:2-asp, N-linoleoyl-Asp], for which the tasting result in assay [1] (2 ppm) was “sweet full very natural vanilla”; in assay [2] (2 ppm), “cardboard, sweet diy”; in assay [3] (1 ppm), “fatty, authentic fruit like, slight raspberry and pear note”; in assay [4], “fatty skin like, slight apple note”; in [5] (setting [13]), “very juicy, authentic, texture like pear 3D”.
Consider `CCCCCCCC/C=C\CCCCCCCC(=O)NC(CCC(=O)O)C(=O)O` (stereo not shown) [C18:1-glu], for which the tasting result in [9] (2 ppm) is “full, fatty, vanilla bean enhanced, whipped cream like”; in [1] (1 ppm), “full, beany, more sweet; also recorded: sweet vanillic”; in [2] (0.5 ppm), “full cocoa, nice sweet”; in assay [3] (1 ppm) it was “heavy, jammy, enhanced mango, more sulfury, sl umami”; in assay [7], “nice mouthfeel, more natural strawberry, full juicy”; in [4], “ripe, much more juicy, long lasting, more fatty and sweet”. Besides, the tasting result is “nice fatty, juicy, long lasting” in assay [5] (0.5 ppm, 7% sugar) and “ripe, authentic pear, juicy, fatty skin like” in assay [5] (setting [13]).
In the case of `CCCCCCCC/C=C\CCCCCCCC(=O)NC(CCSC)C(=O)O` (stereo not shown) [C18:1-met], the tasting result in assay [10] (0.5 PPM in beef bouillon base 1.0% salt) was “Very salty and rich”; in [10] (1.0 PPM in beef bouillon base 1.0% salt), “Full bodied, long lasting, more mouthfeel”; in assay [11] (0.25 ppm on fried potato snack), “Salty, aged cheese, succulent”; in assay [11] (0.5 ppm on fried potato snack), “Increased cheese, creamy, salty and succulent”; in assay [3] (1 ppm) it was “sweeter, juicy, salivating”; in assay [12] (1 ppm), “very strong salty impact and aftertaste; also recorded: very strong salty impact and aftertaste, more fatty, mouthfeel, lingering full bodied”. The tasting result was “more peppery, more salty” in assay [12] (25 ppb); “more salty, more bouillon taste” in [12] (50 ppb); “fresh, less floral, very juicy, very authentic” in “Test in lemon beverage”; “very juicy fresh, authentic, juicy” in “Test in orange beverage”.
As for “N-oleoyl 1-amino-cyclopropyl carboxylic acid [C18:1-ACCA]”, the tasting result in assay [9] (0.5 ppm) is listed as “sweet, sugar-like, vanillic”; in “Tasting in soy sauce”, “Strong upfront saltiness lingering, very strong saltiness”.
`CCCCCC/C=C\CCCC(=O)NC(CCSC)C(=O)O` (stereo not shown) [C12:1-met]: the tasting result in assay [3] (1 ppm) is “ripe full, more juicy, slightly metallic”; in assay [12] (1 ppm), “more salty”; in the assay “Test in lemon beverage”, “fresh, slightly more citral”; in “Test in orange beverage”, “nice orange, fresh”.
